pIC50: −log10 of the molar value.
Tests used:
CAMK2G (CaMKII gamma) = CAMK2G (CaMKII gamma) (Homo sapiens, UniProt Q13555); assay: SelectScreen kinase profiling, LanthaScreen binding
PDGFRA (PDGFR alpha) = PDGFRA (PDGFR alpha) (Homo sapiens, UniProt P16234); assay: SelectScreen kinase profiling, ZLYTE; type: biochemical
P450 3A5 = P450 3A5 (Homo sapiens, UniProt P20815); assay: SelectScreen P450 Vivid biochemical assay; settings: 10000nM
MON cells = assay: PrestoBlue Cell Viability assay; type: cell-based; settings: read-out: PB: IC50 of the PrestoBlue Viability assay
Description: (§1) Cell viability was assessed using the Presto Blue™ Cell Viability reagent (Thermo Fisher Scientific, Carlsbad, CA, USA) following the manufacturer’s instructions. Cells were plated in 96-well plates at the same densities described above for the proliferation assay. The fluorescence was measured after 24, 48, 72, and 96 h at concentrations ranging from 0.001 to 10 µM of the inhibitor. All assays were performed in triplicate.

D283 cells = assay: PrestoBlue Cell Viability assay; type: cell-based; settings: D283, read-out: PB: IC50 of the PrestoBlue Viability assay
Description: as §1

BT-16 cells = assay: PrestoBlue Cell Viability assay; type: cell-based; settings: BT-16, read-out: PB: IC50 of the PrestoBlue Viability assay
Description: as §1

PLK2 = PLK2 (Homo sapiens, UniProt Q9NYY3); assay: SelectScreen kinase profiling, ZLYTE; type: biochemical; settings: PLK2, 10 µM
Source text: (§2) Kinase Technology % Inhibition Avg Kinase Technology % Inhibition Avg
(§3) STK23 (MSSK1) ZLYTE 59 TGFBR1 (ALK5) LanthaScreen 85
(§4) STK24 (MST3) ZLYTE 85 TGFBR2 LanthaScreen 77
(§5) STK25 (YSK1) ZLYTE 45 TLK1 LanthaScreen 4
(§6) STK3 (MST2) ZLYTE 77 TLK2 LanthaScreen 33
(§7) STK32B (YANK2) LanthaScreen 61 TNIK LanthaScreen 15
(§8) STK32C (YANK3) LanthaScreen 62 TNK1 ZLYTE 94
(§9) STK33 LanthaScreen 81 TNK2 (ACK) LanthaScreen 71
(§10) STK38 (NDR) LanthaScreen 85 TTK LanthaScreen 54
(§11) STK38L (NDR2) LanthaScreen 59 TXK ZLYTE 94
(§12) STK39 (STLK3) LanthaScreen 38 TYK2 ZLYTE 99
(§13) STK4 (MST1) ZLYTE 93 TYRO3 (RSE) ZLYTE 92
(§14) SYK ZLYTE 98 ULK1 LanthaScreen 80
(§15) TAOK1 LanthaScreen 82 ULK2 LanthaScreen 56
(§16) TAOK2 (TAO1) ZLYTE 87 ULK3 LanthaScreen 5
(§17) TAOK3 (JIK) LanthaScreen 25 VRK2 LanthaScreen 32
(§18) TBK1 ZLYTE 99 WEE1 LanthaScreen 75
(§19) TEC LanthaScreen -9 WNK1 LanthaScreen 2
(§20) TEK (Tie2) ZLYTE 99 WNK2 LanthaScreen 1
(§21) TEK (TIE2) R849W LanthaScreen -5 WNK3 LanthaScreen 7
(§22) TEK (TIE2) Y897S ZLYTE 80 ZAK LanthaScreen 77
(§23) TESK1 LanthaScreen 37 ZAP70 ZLYTE 24
(§24) cleavage (Thermo Fisher Scientific, USA)

DYRK4 = DYRK4 (Homo sapiens, UniProt Q9NR20); assay: SelectScreen kinase profiling, ZLYTE; type: biochemical; settings: DYRK4, 10 µM
Source text: as §2, §3, §4, §5, §6, §7, §8, §9, §10, §11, §12, §13, §14, §15, §16, §17, §18, §19, §20, §21, §22, §23, §24

PAK7 (KIAA1264) = PAK7 (KIAA1264) (Homo sapiens, UniProt Q9P286); assay: SelectScreen kinase profiling, ZLYTE; type: biochemical
Source text: as §2, §3, §4, §5, §6, §7, §8, §9, §10, §11, §12, §13, §14, §15, §16, §17, §18, §19, §20, §21, §22, §23, §24

SRPK1 = SRPK1 (Homo sapiens, UniProt Q96SB4); assay: SelectScreen kinase profiling, ZLYTE; type: biochemical; settings: SRPK1, 10 µM
Source text: as §2, §3, §4, §5, §6, §7, §8, §9, §10, §11, §12, §13, §14, §15, §16, §17, §18, §19, §20, §21, §22, §23, §24

MAPKAPK3 = MAPKAPK3 (Homo sapiens, UniProt Q16644); assay: SelectScreen kinase profiling, ZLYTE; type: biochemical; settings: MAPKAPK3, 10 µM
Source text: as §2, §3, §4, §5, §6, §7, §8, §9, §10, §11, §12, §13, §14, §15, §16, §17, §18, §19, §20, §21, §22, §23, §24

CSNK1E (CK1 epsilon) = CSNK1E (CK1 epsilon) (Homo sapiens, UniProt P49674); assay: SelectScreen kinase profiling, ZLYTE; type: biochemical
Source text: as §2, §3, §4, §5, §6, §7, §8, §9, §10, §11, §12, §13, §14, §15, §16, §17, §18, §19, §20, §21, §22, §23, §24

PKN1 (PRK1) = PKN1 (PRK1) (Homo sapiens, UniProt Q16512); assay: SelectScreen kinase profiling, ZLYTE; type: biochemical
Source text: as §2, §3, §4, §5, §6, §7, §8, §9, §10, §11, §12, §13, §14, §15, §16, §17, §18, §19, §20, §21, §22, §23, §24

INSR = INSR (Homo sapiens, UniProt P06213); assay: SelectScreen kinase profiling, ZLYTE; type: biochemical
Source text: as §2, §3, §4, §5, §6, §7, §8, §9, §10, §11, §12, §13, §14, §15, §16, §17, §18, §19, §20, §21, §22, §23, §24

MST1R (RON) = MST1R (RON) (Homo sapiens, UniProt Q04912); assay: SelectScreen kinase profiling, ZLYTE; type: biochemical
Source text: as §2, §3, §4, §5, §6, §7, §8, §9, §10, §11, §12, §13, §14, §15, §16, §17, §18, §19, §20, §21, §22, §23, §24

RPS6KA3 (RSK2) = RPS6KA3 (RSK2) (Homo sapiens, UniProt P51812); assay: SelectScreen kinase profiling, ZLYTE; type: biochemical
Source text: as §2, §3, §4, §5, §6, §7, §8, §9, §10, §11, §12, §13, §14, §15, §16, §17, §18, §19, §20, §21, §22, §23, §24

PDGFRA T674I = PDGFRA T674I (Homo sapiens, UniProt P16234, T674I); assay: SelectScreen kinase profiling, ZLYTE; type: biochemical
Source text: as §2, §3, §4, §5, §6, §7, §8, §9, §10, §11, §12, §13, §14, §15, §16, §17, §18, §19, §20, §21, §22, §23, §24

NEK6 = NEK6 (Homo sapiens, UniProt Q9HC98); assay: SelectScreen kinase profiling, ZLYTE; type: biochemical; settings: NEK6, 10 µM
Source text: as §2, §3, §4, §5, §6, §7, §8, §9, §10, §11, §12, §13, §14, §15, §16, §17, §18, §19, §20, §21, §22, §23, §24

INSRR (IRR) = INSRR (IRR) (Homo sapiens, UniProt P14616); assay: SelectScreen kinase profiling, ZLYTE; type: biochemical
Source text: as §2, §3, §4, §5, §6, §7, §8, §9, §10, §11, §12, §13, §14, §15, §16, §17, §18, §19, §20, §21, §22, §23, §24

KSR2 = KSR2 (Homo sapiens, UniProt Q6VAB6); assay: SelectScreen kinase profiling, ZLYTE; type: biochemical; settings: KSR2, 10 µM
Source text: as §2, §3, §4, §5, §6, §7, §8, §9, §10, §11, §12, §13, §14, §15, §16, §17, §18, §19, §20, §21, §22, §23, §24

BTK = BTK (Homo sapiens, UniProt Q06187); assay: SelectScreen kinase profiling, ZLYTE; type: biochemical
Source text: as §2, §3, §4, §5, §6, §7, §8, §9, §10, §11, §12, §13, §14, §15, §16, §17, §18, §19, §20, §21, §22, §23, §24

PTK2 (FAK) = PTK2 (FAK) (Homo sapiens, UniProt Q05397); assay: SelectScreen kinase profiling, ZLYTE; type: biochemical
Source text: as §2, §3, §4, §5, §6, §7, §8, §9, §10, §11, §12, §13, §14, §15, §16, §17, §18, §19, §20, §21, §22, §23, §24

GRK5 = GRK5 (Homo sapiens, UniProt P34947); assay: SelectScreen kinase profiling, ZLYTE; type: biochemical; settings: GRK5, 10 µM
Source text: as §2, §3, §4, §5, §6, §7, §8, §9, §10, §11, §12, §13, §14, §15, §16, §17, §18, §19, §20, §21, §22, §23, §24

RAF1 (cRAF) Y340D Y341D = RAF1 (cRAF) Y340D Y341D (Homo sapiens, UniProt P04049, Y340D/Y341D); assay: SelectScreen kinase profiling, ZLYTE; type: biochemical
Source text: as §2, §3, §4, §5, §6, §7, §8, §9, §10, §11, §12, §13, §14, §15, §16, §17, §18, §19, §20, §21, §22, §23, §24

PTK6 (Brk) = PTK6 (Brk) (Homo sapiens, UniProt Q13882); assay: SelectScreen kinase profiling, ZLYTE; type: biochemical
Source text: as §2, §3, §4, §5, §6, §7, §8, §9, §10, §11, §12, §13, §14, §15, §16, §17, §18, §19, §20, §21, §22, §23, §24

STK22D (TSSK1) = STK22D (TSSK1) (Homo sapiens, UniProt Q9BXA7); assay: SelectScreen kinase profiling, ZLYTE; type: biochemical
Source text: as §2, §3, §4, §5, §6, §7, §8, §9, §10, §11, §12, §13, §14, §15, §16, §17, §18, §19, §20, §21, §22, §23, §24

BRAF V599E = BRAF V599E (Homo sapiens, UniProt P15056, V600E); assay: SelectScreen kinase profiling, LanthaScreen binding
ADRBK1 (GRK2) = ADRBK1 (GRK2) (Homo sapiens, UniProt P25098); assay: SelectScreen kinase profiling, ZLYTE; type: biochemical

Sequence of P450 3A5 (P20815 whole entry): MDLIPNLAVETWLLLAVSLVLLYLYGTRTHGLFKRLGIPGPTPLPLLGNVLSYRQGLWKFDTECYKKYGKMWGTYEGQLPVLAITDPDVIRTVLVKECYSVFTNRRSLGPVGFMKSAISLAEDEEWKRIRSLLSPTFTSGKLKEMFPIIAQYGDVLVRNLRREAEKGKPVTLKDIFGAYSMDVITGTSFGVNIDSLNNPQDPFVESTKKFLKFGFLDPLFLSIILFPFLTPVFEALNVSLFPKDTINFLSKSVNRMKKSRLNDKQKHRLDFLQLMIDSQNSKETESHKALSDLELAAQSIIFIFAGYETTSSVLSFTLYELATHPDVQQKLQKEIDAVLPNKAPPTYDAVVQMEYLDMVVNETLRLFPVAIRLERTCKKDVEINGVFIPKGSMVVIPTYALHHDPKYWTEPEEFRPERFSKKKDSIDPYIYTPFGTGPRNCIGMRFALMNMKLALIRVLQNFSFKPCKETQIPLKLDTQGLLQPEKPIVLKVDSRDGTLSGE
Sequence of PTK2 (FAK) (Q05397 whole entry): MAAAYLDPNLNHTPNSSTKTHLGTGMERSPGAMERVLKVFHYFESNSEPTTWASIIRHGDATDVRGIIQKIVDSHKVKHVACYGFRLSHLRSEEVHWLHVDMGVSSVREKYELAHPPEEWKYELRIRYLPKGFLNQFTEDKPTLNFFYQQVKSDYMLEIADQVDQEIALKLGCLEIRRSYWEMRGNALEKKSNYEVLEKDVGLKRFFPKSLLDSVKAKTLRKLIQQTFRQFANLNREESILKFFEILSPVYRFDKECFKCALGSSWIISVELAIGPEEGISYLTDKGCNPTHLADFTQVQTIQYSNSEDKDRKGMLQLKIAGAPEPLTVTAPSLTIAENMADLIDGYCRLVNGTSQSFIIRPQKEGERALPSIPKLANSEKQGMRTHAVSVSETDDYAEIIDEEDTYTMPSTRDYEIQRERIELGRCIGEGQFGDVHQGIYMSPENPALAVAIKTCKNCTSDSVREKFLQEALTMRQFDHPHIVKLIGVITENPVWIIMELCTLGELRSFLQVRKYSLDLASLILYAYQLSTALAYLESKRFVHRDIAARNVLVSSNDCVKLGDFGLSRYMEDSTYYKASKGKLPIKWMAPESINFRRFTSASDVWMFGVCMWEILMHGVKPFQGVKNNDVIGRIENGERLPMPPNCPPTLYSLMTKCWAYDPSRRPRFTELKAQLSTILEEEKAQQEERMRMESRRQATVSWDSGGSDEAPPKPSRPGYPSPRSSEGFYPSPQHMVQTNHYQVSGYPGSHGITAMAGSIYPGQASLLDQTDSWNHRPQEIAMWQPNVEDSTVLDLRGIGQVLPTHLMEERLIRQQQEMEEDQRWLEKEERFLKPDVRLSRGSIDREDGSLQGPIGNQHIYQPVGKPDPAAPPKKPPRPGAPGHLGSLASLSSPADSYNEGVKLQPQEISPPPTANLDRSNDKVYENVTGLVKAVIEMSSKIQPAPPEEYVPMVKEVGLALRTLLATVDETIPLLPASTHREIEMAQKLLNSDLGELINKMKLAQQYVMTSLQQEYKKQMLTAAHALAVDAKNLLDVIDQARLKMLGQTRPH
Sequence of GRK5 (P34947 whole entry): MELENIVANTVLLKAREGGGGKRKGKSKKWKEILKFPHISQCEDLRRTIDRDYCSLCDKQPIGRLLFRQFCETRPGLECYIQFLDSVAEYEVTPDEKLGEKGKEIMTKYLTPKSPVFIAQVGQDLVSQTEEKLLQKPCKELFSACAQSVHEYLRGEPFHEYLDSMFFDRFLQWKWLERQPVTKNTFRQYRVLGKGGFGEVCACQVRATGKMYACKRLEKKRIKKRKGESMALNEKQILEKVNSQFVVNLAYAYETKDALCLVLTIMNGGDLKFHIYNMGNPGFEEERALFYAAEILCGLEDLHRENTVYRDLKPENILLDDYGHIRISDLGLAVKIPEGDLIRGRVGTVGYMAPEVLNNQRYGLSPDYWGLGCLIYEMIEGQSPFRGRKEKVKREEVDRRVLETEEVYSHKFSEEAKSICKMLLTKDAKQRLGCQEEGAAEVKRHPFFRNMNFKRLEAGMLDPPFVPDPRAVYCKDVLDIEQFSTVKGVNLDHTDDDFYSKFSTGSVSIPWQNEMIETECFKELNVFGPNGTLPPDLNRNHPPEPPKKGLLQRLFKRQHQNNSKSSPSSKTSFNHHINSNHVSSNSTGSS
Sequence of INSRR (IRR) (P14616 27-1297): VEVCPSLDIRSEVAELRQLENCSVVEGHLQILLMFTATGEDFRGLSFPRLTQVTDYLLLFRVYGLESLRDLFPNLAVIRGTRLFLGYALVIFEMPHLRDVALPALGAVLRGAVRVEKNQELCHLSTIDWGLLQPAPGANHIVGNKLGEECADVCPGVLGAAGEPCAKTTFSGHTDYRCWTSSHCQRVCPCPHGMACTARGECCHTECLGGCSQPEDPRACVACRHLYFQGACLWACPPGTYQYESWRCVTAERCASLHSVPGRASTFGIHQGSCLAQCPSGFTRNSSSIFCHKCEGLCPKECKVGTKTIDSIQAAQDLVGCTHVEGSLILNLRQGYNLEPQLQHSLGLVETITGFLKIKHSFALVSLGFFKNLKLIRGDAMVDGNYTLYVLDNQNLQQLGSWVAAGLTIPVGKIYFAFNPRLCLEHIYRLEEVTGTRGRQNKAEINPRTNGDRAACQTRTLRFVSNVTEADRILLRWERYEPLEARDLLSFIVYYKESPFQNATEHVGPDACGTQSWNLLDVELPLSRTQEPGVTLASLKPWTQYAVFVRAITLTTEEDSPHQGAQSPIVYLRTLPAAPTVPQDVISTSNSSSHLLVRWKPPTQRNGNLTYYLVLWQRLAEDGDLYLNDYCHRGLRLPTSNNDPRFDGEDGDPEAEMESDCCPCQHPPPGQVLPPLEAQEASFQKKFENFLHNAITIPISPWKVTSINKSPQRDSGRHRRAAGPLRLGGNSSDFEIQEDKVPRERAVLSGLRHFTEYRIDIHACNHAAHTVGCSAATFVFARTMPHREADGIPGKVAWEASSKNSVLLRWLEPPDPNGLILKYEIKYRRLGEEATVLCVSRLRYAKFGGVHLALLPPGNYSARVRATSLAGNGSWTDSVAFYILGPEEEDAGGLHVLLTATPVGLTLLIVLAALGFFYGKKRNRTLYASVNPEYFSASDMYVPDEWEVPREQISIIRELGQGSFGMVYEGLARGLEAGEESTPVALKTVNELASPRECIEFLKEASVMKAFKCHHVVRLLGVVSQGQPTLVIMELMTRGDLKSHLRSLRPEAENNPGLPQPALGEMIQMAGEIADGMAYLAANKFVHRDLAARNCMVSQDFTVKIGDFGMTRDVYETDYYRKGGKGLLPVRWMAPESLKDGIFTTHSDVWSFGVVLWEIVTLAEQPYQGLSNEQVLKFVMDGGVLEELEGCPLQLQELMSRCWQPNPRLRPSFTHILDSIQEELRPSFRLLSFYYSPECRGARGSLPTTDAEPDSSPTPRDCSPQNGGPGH
Sequence of PDGFRA T674I (P16234 24-1089 T674I): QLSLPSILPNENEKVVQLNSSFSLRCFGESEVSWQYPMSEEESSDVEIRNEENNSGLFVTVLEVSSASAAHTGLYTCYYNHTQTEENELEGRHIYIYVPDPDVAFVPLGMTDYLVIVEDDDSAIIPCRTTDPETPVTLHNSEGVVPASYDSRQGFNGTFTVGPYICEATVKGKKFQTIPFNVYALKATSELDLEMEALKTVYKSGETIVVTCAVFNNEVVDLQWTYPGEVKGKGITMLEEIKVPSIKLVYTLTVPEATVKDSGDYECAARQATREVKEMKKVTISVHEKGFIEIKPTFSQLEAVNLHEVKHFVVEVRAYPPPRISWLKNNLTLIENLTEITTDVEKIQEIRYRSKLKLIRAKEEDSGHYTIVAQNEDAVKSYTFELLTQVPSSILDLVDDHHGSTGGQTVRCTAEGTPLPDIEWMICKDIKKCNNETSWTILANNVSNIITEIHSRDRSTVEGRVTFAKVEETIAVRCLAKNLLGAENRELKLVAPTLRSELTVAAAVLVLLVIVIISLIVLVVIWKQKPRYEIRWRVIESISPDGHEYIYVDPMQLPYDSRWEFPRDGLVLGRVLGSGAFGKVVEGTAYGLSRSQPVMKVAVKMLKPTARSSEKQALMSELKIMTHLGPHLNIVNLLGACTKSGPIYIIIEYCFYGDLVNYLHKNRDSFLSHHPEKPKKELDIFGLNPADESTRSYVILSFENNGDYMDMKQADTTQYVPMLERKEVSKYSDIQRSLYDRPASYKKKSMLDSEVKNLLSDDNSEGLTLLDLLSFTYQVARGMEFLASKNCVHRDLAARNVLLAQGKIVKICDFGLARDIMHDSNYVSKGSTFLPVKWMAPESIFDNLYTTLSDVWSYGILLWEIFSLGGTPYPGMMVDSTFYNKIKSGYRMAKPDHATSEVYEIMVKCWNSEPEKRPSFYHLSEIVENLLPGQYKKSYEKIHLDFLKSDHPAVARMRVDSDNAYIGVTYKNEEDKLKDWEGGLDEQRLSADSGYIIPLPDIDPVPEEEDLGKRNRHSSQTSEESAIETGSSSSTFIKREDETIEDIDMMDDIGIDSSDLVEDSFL
Sequence of MAPKAPK3 (Q16644 whole entry): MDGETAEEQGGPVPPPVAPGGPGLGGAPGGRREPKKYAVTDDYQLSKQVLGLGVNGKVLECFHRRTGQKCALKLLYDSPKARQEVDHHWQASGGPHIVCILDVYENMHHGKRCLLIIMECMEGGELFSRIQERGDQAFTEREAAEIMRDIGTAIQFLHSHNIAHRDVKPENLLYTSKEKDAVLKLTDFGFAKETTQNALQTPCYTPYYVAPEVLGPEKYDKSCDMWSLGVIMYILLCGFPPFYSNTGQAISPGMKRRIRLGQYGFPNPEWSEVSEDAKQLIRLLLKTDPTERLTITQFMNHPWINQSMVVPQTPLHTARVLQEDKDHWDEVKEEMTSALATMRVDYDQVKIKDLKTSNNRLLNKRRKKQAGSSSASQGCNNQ
Sequence of PDGFRA (PDGFR alpha) (P16234 24-1089): as the sequence (P16234 24-1089 T674I) above, with I651T counted along it

## O=C(c1ccc(/C=C/c2n[nH]c3ccccc23)cc1)N1CCNCC1 [KW-2449]
CAMK2G (CaMKII gamma)
  inhibition at 10 µM: -110%
PDGFRA (PDGFR alpha)
  inhibition at 10 µM: 91%
P450 3A5; substrate BOMCC
  % Inhibition 3A5 BOMCC: 14%
P450 3A5; substrate DBOMF
  % Inhibition 3A5 DBOMF: 10%
MON cells
  pIC50: 5.76
D283 cells
  pIC50: < 5.00
BT-16 cells
  pIC50: 5.74
PLK2
  inhibition at 10 µM: 35%
DYRK4
  inhibition at 10 µM: 16%
PAK7 (KIAA1264)
  inhibition at 10 µM: 98%
SRPK1
  inhibition at 10 µM: 31%
MAPKAPK3
  inhibition at 10 µM: 4%
CSNK1E (CK1 epsilon)
  inhibition at 10 µM: 67%
PKN1 (PRK1)
  inhibition at 10 µM: 72%
INSR
  inhibition at 10 µM: 96%
MST1R (RON)
  inhibition at 10 µM: 97%
RPS6KA3 (RSK2)
  inhibition at 10 µM: 95%
PDGFRA T674I
  inhibition at 10 µM: 97%
NEK6
  inhibition at 10 µM: 10%
INSRR (IRR)
  inhibition at 10 µM: 96%
KSR2
  inhibition at 10 µM: 5%
BTK
  inhibition at 10 µM: 99%
PTK2 (FAK)
  inhibition at 10 µM: 95%
GRK5
  inhibition at 10 µM: 17%
RAF1 (cRAF) Y340D Y341D
  inhibition at 10 µM: 74%
PTK6 (Brk)
  inhibition at 10 µM: 71%
STK22D (TSSK1)
  inhibition at 10 µM: 99%
BRAF V599E
  inhibition at 10 µM: 6%
ADRBK1 (GRK2)
  inhibition at 10 µM: 38%

Source: article PMC6540285, “Evaluation of Protein Kinase Inhibitors with PLK4 Cross-Over Potential in a Pre-Clinical Model of Cancer” (International Journal of Molecular Sciences, 2019)
